Laboratory results published in ChEMBL document CHEMBL1909046, “DrugMatrix in vitro pharmacology data”.

Tests used:
Estrogen receptor beta = Estrogen receptor beta (Homo sapiens, UniProt Q92731); details: sf9; further: in other assays of this panel Not Active means under 50% inhibition at 10 µM
Cytochrome P450 2C19 = Cytochrome P450 2C19 (Homo sapiens, UniProt P33261); details: bti-tn-5b1-4; further: in other assays of this panel Not Active means under 50% inhibition at 10 µM
Cytochrome P450 2A6 = target: T1, Cytochrome P450 2A6 (Homo sapiens, UniProt P11509); details: bti-tn-5b1-4; further: in other assays of this panel Not Active means under 50% inhibition at 10 µM
T1 sequence (P11509 whole entry): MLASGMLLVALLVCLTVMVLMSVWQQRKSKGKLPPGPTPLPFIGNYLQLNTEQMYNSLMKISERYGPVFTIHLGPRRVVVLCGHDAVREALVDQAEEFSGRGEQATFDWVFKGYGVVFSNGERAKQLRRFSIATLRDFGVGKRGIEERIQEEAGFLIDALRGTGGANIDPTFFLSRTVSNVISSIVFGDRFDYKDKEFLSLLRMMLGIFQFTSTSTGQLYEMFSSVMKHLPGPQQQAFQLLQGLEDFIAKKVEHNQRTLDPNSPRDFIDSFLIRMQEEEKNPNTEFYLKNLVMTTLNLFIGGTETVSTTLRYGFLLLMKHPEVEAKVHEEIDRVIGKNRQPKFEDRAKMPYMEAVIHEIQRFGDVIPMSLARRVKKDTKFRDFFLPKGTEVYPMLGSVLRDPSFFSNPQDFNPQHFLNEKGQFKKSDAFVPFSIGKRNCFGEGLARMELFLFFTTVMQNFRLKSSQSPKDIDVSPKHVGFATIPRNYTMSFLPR

Cytochrome P450 2D6 = Cytochrome P450 2D6 (Homo sapiens, UniProt P10635); details: bti-tn-5b1-4; further: in other assays of this panel Not Active means under 50% inhibition at 10 µM
Cytochrome P450 1A2 = target: T2, Cytochrome P450 1A2 (Homo sapiens, UniProt P05177); details: bti-tn-5b1-4; further: in other assays of this panel Not Active means under 50% inhibition at 10 µM
T2 sequence (P05177 whole entry): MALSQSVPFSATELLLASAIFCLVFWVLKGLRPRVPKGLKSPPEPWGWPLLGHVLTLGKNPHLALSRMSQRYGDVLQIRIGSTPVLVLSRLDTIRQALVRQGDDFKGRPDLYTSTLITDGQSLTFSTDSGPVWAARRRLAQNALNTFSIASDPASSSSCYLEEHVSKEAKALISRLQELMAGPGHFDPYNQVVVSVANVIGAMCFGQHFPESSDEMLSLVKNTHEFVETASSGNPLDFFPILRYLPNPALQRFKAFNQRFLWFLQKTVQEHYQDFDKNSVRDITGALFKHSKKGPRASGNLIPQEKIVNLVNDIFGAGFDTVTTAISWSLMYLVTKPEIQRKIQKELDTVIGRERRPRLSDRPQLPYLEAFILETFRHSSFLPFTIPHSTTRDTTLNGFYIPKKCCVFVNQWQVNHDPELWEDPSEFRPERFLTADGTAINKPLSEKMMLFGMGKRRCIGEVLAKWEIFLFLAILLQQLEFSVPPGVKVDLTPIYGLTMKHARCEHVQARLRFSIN

[1] = target: Voltage-gated inwardly rectifying potassium channel KCNH2 (Homo sapiens, UniProt Q12809); details: hek293; further: in other assays of this panel Not Active means under 50% inhibition at 10 µM
D(1A) dopamine receptor = D(1A) dopamine receptor (Homo sapiens, UniProt P21728); experiment: DRUGMATRIX: Dopamine D1 radioligand binding (ligand: [3H] SCH-23390); type: cell membranes, CHO, Membrane; details: cho; Not Active = under 50% inhibition at 10 µM
Estrogen receptor = target: T3, Estrogen receptor (Homo sapiens, UniProt P03372); details: sf9; further: in other assays of this panel Not Active means under 50% inhibition at 10 µM
T3 sequence (P03372 whole entry): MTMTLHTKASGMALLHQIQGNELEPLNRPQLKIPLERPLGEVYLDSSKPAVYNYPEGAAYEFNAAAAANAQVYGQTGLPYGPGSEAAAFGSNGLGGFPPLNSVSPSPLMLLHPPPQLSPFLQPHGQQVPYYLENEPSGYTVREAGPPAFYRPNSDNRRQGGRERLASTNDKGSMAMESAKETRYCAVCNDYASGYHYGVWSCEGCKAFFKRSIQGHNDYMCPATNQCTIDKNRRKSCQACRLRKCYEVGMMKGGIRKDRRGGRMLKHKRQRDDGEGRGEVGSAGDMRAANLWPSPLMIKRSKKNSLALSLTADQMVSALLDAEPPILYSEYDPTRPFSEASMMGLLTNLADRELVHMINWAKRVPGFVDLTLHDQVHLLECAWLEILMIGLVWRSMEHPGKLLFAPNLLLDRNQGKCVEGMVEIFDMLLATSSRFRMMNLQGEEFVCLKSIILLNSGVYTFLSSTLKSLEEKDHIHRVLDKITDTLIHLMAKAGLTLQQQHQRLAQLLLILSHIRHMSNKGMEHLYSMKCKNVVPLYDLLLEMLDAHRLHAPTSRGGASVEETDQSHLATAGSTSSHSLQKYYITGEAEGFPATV

D(3) dopamine receptor = D(3) dopamine receptor (Homo sapiens, UniProt P35462); experiment: DRUGMATRIX: Dopamine D3 radioligand binding (ligand: [3H] Spiperone); type: cell membranes, CHO, Membrane
Chain of D(3) dopamine receptor (P35462 whole entry): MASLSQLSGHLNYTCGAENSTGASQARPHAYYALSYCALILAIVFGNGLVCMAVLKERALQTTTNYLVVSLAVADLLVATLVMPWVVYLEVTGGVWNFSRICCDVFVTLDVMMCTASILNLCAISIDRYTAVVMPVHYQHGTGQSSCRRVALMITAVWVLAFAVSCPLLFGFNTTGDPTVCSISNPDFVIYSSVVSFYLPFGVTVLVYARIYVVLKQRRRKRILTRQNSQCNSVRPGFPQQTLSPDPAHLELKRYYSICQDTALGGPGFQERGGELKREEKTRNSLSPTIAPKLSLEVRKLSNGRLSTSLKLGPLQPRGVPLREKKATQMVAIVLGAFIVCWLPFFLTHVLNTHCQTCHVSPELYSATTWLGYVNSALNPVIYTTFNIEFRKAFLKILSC

Chain of Cytochrome P450 2D6 (P10635 whole entry): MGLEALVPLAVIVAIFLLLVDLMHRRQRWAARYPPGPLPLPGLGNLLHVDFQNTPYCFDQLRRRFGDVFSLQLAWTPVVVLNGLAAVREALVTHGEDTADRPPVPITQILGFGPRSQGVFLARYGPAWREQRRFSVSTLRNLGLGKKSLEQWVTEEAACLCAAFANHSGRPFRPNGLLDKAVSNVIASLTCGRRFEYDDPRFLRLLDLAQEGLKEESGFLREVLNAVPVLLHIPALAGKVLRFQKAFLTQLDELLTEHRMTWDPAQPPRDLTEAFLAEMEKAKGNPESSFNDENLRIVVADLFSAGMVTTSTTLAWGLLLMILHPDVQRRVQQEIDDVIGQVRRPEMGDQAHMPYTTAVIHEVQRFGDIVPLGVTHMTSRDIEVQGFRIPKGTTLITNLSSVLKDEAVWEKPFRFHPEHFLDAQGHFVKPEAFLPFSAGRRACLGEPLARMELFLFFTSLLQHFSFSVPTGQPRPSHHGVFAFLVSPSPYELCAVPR
Chain of Voltage-gated inwardly rectifying potassium channel KCNH2 (Q12809 whole entry): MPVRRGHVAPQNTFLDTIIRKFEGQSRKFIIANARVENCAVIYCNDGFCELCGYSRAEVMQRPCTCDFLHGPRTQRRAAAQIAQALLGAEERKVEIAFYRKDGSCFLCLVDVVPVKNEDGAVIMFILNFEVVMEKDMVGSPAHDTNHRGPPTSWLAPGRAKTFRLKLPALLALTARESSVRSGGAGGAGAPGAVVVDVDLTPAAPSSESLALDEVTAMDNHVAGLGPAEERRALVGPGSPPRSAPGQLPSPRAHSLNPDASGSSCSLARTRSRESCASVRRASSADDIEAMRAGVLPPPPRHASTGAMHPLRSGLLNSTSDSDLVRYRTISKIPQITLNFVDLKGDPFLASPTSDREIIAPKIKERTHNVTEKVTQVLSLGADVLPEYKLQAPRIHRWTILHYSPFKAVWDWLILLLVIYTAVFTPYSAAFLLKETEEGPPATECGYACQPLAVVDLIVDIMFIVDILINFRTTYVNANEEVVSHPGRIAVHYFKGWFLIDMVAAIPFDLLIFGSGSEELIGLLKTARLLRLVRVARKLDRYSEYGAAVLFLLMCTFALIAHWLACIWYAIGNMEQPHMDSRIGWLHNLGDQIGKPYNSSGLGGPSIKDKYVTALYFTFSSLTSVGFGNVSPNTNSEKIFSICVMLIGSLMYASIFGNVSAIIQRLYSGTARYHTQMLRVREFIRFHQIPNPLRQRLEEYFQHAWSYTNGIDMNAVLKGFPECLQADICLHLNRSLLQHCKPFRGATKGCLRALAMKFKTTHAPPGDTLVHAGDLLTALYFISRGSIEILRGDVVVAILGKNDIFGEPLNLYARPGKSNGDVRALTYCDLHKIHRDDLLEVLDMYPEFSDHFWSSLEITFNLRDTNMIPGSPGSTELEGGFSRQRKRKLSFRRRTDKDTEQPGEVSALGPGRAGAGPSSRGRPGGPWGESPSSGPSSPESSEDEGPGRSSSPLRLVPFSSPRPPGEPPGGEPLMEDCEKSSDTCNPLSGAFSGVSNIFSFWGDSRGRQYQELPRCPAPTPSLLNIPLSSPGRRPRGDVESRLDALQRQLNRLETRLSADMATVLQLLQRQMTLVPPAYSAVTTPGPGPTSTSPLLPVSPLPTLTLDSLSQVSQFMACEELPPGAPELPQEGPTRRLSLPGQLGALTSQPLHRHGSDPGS
Chain of Cytochrome P450 2C19 (P33261 whole entry): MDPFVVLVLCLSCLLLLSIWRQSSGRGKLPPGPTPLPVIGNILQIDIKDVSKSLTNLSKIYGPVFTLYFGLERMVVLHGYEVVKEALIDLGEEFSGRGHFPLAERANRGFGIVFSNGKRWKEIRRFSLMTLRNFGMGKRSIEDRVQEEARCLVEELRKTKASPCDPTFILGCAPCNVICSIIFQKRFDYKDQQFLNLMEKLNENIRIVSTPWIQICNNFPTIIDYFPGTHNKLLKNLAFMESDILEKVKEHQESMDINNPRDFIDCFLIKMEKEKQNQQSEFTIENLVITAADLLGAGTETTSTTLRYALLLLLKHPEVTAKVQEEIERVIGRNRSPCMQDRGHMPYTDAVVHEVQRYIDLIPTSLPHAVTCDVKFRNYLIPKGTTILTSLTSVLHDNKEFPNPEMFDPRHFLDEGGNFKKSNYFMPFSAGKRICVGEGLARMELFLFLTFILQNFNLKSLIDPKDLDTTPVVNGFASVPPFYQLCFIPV
Chain of Estrogen receptor beta (Q92731 whole entry): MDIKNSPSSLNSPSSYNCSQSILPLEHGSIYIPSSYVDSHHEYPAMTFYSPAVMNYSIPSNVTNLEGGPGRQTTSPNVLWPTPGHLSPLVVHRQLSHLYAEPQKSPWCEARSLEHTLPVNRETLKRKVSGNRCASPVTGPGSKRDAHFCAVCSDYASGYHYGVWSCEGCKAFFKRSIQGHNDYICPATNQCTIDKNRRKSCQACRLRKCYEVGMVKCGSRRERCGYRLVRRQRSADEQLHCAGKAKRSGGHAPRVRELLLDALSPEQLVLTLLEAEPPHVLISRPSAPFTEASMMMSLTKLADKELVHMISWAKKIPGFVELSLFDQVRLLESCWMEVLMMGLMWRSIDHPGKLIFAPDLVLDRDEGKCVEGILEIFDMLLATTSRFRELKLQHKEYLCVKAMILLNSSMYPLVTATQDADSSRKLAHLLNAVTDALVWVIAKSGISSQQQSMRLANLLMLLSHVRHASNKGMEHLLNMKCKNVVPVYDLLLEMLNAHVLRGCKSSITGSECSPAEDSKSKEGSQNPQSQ
Chain of D(1A) dopamine receptor (P21728 whole entry): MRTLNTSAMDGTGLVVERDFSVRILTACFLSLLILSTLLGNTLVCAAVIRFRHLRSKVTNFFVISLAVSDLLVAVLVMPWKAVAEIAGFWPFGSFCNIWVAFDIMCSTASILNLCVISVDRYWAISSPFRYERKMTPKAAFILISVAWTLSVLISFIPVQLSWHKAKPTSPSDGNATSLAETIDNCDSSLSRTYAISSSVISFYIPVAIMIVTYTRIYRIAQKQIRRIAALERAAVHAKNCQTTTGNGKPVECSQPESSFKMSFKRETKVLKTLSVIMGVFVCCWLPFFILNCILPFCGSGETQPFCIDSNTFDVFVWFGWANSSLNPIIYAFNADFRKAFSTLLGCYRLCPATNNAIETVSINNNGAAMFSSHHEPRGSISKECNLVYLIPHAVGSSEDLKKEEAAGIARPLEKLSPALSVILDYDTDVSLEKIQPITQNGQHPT

Row | Molecule | IC50 (Estrogen receptor beta) | IC50 (Cytochrome P450 2C19) | Ki (Cytochrome P450 2C19) | IC50 (Cytochrome P450 2A6) | Ki (Cytochrome P450 2A6) | IC50 (Cytochrome P450 2D6) | Ki (Cytochrome P450 2D6) | IC50 (Cytochrome P450 1A2) | Ki (Cytochrome P450 1A2) | IC50 [1] | Ki [1] | IC50 (D(1A) dopamine receptor) | IC50 (Estrogen receptor) | IC50 (D(3) dopamine receptor; cho) | Ki (Estrogen receptor beta) | Ki (D(1A) dopamine receptor) | Ki (Estrogen receptor) | Ki (D(3) dopamine receptor; cho) | IC50 (D(3) dopamine receptor; read-out: IC50) [µM] | Ki (D(3) dopamine receptor; read-out: Ki) [µM]
1 | CC[C@@]1(O)C(=O)OCc2c1cc1n(c2=O)Cc2cc3c(CN(C)C)c(O)ccc3nc2-1 [TOPOTECAN] | Not Active | Not Active | Not Active | Not Active | Not Active | Not Active | Not Active | Not Active | Not Active | Not Active | Not Active | Not Active | Not Active | Not Active |  |  |  |  |  | 
2 | CC1(C)[C@H](C(=O)O)N2C(=O)C[C@H]2S1(=O)=O [SULBACTAM] | Not Active | Not Active | Not Active | Not Active | Not Active | Not Active | Not Active | Not Active | Not Active | Not Active | Not Active | Not Active | Not Active | Not Active |  |  |  |  |  | 
3 | Cc1cccc(C)c1NC(=O)C(C)N (centres undefined) [TOCAINIDE] | Not Active | Not Active | Not Active | Not Active | Not Active | Not Active | Not Active | Not Active | Not Active | Not Active | Not Active | Not Active | Not Active | Not Active |  |  |  |  |  | 
4 | LEAD(IV) ACETATE | Not Active | Not Active | Not Active | Not Active | Not Active | Not Active | Not Active | Not Active | Not Active | Not Active | Not Active | Not Active | Not Active | Not Active | Not Active | Not Active | Not Active | Not Active |  | 
5 | CC(N)C12CC3CC(CC(C3)C1)C2 (centres undefined) [RIMANTADINE] | Not Active | Not Active | Not Active | Not Active | Not Active | Not Active | Not Active | Not Active | Not Active | Not Active | Not Active | Not Active | Not Active | Not Active |  |  |  |  |  | 
6 | CCOC(=O)C1=C(C)NC(C)=C(C(=O)OCC)C1c1ccccc1/C=C/C(=O)OC(C)(C)C [LACIDIPINE] | Not Active |  |  | Not Active | Not Active | Not Active | Not Active | Not Active | Not Active | Not Active | Not Active | Not Active | Not Active |  |  |  |  |  | 6.17 | 2.1
7 | CC(C)(C)NC[C@H](O)COc1cccc2c1CCCC2=O [LEVOBUNOLOL] | Not Active | Not Active | Not Active | Not Active | Not Active | Not Active | Not Active | Not Active | Not Active | Not Active | Not Active | Not Active | Not Active | Not Active |  |  |  |  |  | 
8 | Cc1[nH]c(=O)c(C#N)cc1-c1ccncc1 [MILRINONE] | Not Active |  |  | Not Active | Not Active | Not Active | Not Active | Not Active | Not Active |  |  | Not Active | Not Active | Not Active |  |  |  |  |  | 
9 | Cc1cnc(NC(=O)C2=C(O)c3ccccc3S(=O)(=O)N2C)s1 [MELOXICAM] | Not Active | Not Active | Not Active | Not Active | Not Active | Not Active | Not Active | Not Active | Not Active | Not Active | Not Active | Not Active | Not Active | Not Active |  |  |  |  |  | 
10 | O=[As][O-].[Na+] [SODIUM ARSENITE] | Not Active | Not Active | Not Active | Not Active | Not Active | Not Active | Not Active | Not Active | Not Active | Not Active | Not Active | Not Active | Not Active | Not Active |  |  |  |  |  | 
11 | Cc1ccc(Cl)c(Nc2ccccc2C(=O)O)c1Cl [MECLOFENAMIC ACID] | Not Active | Not Active | Not Active | Not Active | Not Active | Not Active | Not Active | Not Active | Not Active | Not Active | Not Active | Not Active | Not Active | Not Active |  |  |  |  |  | 
12 | CC[C@H](C)C(=O)O[C@H]1CCC=C2C=C[C@H](C)[C@H](CC[C@@H]3C[C@@H](O)CC(=O)O3)[C@H]21 [MEVASTATIN] | Not Active | Not Active | Not Active | Not Active | Not Active | Not Active | Not Active | Not Active | Not Active |  |  | Not Active | Not Active | Not Active |  |  |  |  |  | 
13 | CN1C(=O)OC(C)(C)C1=O [TRIMETHADIONE] | Not Active | Not Active | Not Active | Not Active | Not Active | Not Active | Not Active | Not Active | Not Active | Not Active | Not Active | Not Active | Not Active | Not Active |  |  |  |  |  | 
